Experimental data: patent US11053260B2, “Tri-cycle compound and applications thereof” (FUJIAN COSUNTER PHARMACEUTICAL CO., LTD., priority 2017, dated 2021)

What follows are compounds tested on HBV (assay: HBV in vitro test in quantitative qPCR assay (HBV DNA content in HepG2.2.15 cells)). Conditions: Hepatitis B virus, HepG2.2.15, 192 h, HBV DNA by qPCR, day 8, read-out: 50% inhibitory concentration (EC50) value of HBV.
Type: cell-based
Procedure: HBV In Vitro Test in Quantitative qPCR Assay
The HBV DNA content in HepG2.2.15 cells was determined by real-time quantitative qPCR assay (real time-qPCR), and the inhibitory effect of the compound on HBV was evaluated by the EC50 value of the compound.
2.1 Cell line: HepG2.2.15 cells
3.1 HepG2.2.15 cells (4×10^4 cells/well) were seeded into a 96-well plate and incubated overnight at 37° C. under 5% CO2.
3.2 On the 2nd day, the compound was diluted into 8 concentrations with 3-time gradient. The compounds with different concentrations were added into the culture wells in duplicate wells. The final concentration of DMSO in the culture medium was 1%. 1 μM GLS4 was used as a 100% inhibition control, and 1% DMSO was used as a 0% inhibition control.
3.3 On the 5th day, the culture medium was replaced with a fresh medium containing the compound.
3.4 On the 8th day, the culture medium in the culture well was collected, and the DNA was extracted with a high-throughput DNA purification kit (Qiagen-51162), of which specific procedure was referred to the product specification.
3.6 15 μL of the reaction mixture was added into each well of a 96-well PCR plate, followed by addition of 10 μL of sample DNA or HBV DNA standards into each well.
3.7 PCR reaction conditions: heating at 95° C. for 10 minutes; then denaturation at 95° C. for 15 seconds, extension at 60° C. for 1 minute, a total of 40 cycles.
3.8.1 Calculation of the percentage of inhibition: % Inh.=[1−(DNA copy number in sample−DNA copy number in 1 μM GLS4)/(DNA copy number in DMSO control−DNA copy number in 1 μM GLS4)]×100
3.8.2 Calculation of EC50: The 50% inhibitory concentration (EC50) value of the compound on HBV was calculated by GraphPad Prism software.
Work on `O=C(NCc1ccccn1)c1ccc2c(c1)NC(=O)c1cccn1S2(=O)=O` [WX176] yielded an EC50 of 1000 to 10000 nM.
`O=C(NCCC1CCCCO1)c1ccc2c(c1)NC(=O)c1cc(Br)cn1S2(=O)=O` (stereo not shown) [WX312] was tested, and the EC50 was ≤ 100 nM.
Compound `O=C(NCCN1CCCS1(=O)=O)c1ccc2c(c1)NC(=O)c1cccn1S2(=O)=O` [WX226] has an EC50 of 500 to 1000 nM.
`O=C(NCc1ccc(C(F)(F)F)cc1)c1ccc2c(c1)NC(=O)c1cccn1S2(=O)=O` [WX235] showed an EC50 of 100 to 500 nM.
With `Cc1ccc2ncc(CNC(=O)c3ccc4c(c3)NC(=O)c3cccn3S4(=O)=O)n2c1` [WX261] the EC50 was 100 to 500 nM.
`Cc1cc2n(c1)S(=O)(=O)c1ccc(C(=O)NCc3cccnc3)cc1NC2=O` [WX306] was tested, and the EC50 was ≤ 100 nM.
In the case of `CC(C)c1ncc(CNC(=O)c2ccc3c(c2)NC(=O)c2cc(Cl)cn2S3(=O)=O)s1` [WX255], the EC50 is reported as ≤ 100 nM.
In the case of `CC(C)(C)OC(=O)N1CCC(CNC(=O)c2ccc3c(c2)NC(=O)c2cccn2S3(=O)=O)CC1` [WX200], the EC50 is reported as ≤ 100 nM.
`O=C(NCCn1ccccc1=O)c1ccc2c(c1)NC(=O)c1cccn1S2(=O)=O` [WX211] gave an EC50 of 500 to 1000 nM.
With `O=C(NCc1ccc(F)cc1)c1ccc2c(c1)NC(=O)c1cccn1S2(=O)=O` [WX189] the EC50 was 100 to 500 nM.
`COC(=O)N1CC(NC(=O)c2ccc3c(c2)NC(=O)c2cccn2S3(=O)=O)C1` [WX201] was tested, and the EC50 was 500 to 1000 nM.
`O=C(NCCCC(F)(F)F)c1ccc2c(c1)NC(=O)c1cccn1S2(=O)=O` [WX187] was tested, and the EC50 was 100 to 500 nM.
With `O=C(NCCc1cccc(F)c1)c1ccc2c(c1)NC(=O)c1cccn1S2(=O)=O` [WX237] the EC50 was ≤ 100 nM.
`CC(C)(C)C(=O)N1CCC(CNC(=O)c2ccc3c(c2)NC(=O)c2cccn2S3(=O)=O)CC1` [WX279] gave an EC50 of 100 to 500 nM.
With `CC(C)CC(=O)N1CCC(CNC(=O)c2ccc3c(c2)NC(=O)c2cccn2S3(=O)=O)CC1` [WX287] the EC50 was 500 to 1000 nM.
`O=C(NCCC1CCC(F)(F)CC1)c1ccc2c(c1)NC(=O)c1cccn1S2(=O)=O` [WX225] was tested, and the EC50 was 100 to 500 nM.
`O=C(NCCOc1cccnc1)c1ccc2c(c1)NC(=O)c1cccn1S2(=O)=O` [WX295] was tested, and the EC50 was 100 to 500 nM.
`CN1CC(CNC(=O)c2ccc3c(c2)NC(=O)c2cccn2S3(=O)=O)OC1=O` (stereo not shown) [WX275] showed an EC50 of 500 to 1000 nM.
For `Cc1cc2n(c1)S(=O)(=O)c1ccc(C(=O)NCc3cnc(-c4ccc(C#N)cc4)s3)cc1NC2=O` [WX308], the EC50 was ≤ 100 nM.
